In US12042500B2, “Mucoadhesive drug delivery system for ocular administration of fluoroquinolone antibiotics” (HYDERABAD EYE RESEARCH FOUNDATION, priority 2018, dated 2024):
Marks after values point to notes of the source that are not given here.

Assays:
[1] = In vitro drug release study, Franz diffusion cell with dialysis membrane; assay type: physicochemical; settings: PBS pH 7.4, 33±1° C., 2 mg drug in donor
Experimental: In vitro release of drugs was performed using Franz diffusion cell apparatus (Permegear Inc., USA). […] The donor compartment was loaded with 2 mg of drug containing polymeric hydrogel or standard drug solution or marketed formulation. […] Samples were analyzed using HPLC method described above.

excised human cornea = test system: excised human cornea
Experimental: HPLC analysis was performed using Shimadzu Prominence UFLC, LC-20 system (Shimadzu, Japan) with a C18 column (Shimpack GIST column, 5 μm, 4.6×250 mm). The mobile phase used for besifloxacin analysis comprised of a mixture of 0.5% triethylamine solution (pH adjusted to 3.0 with 10% ortho-phosphoric acid) and acetonitrile (ACN) (74:26, v/v) (Costa et al, 2014). […] The injection volume was 50 μl for all the standards and test solutions. The flow rate and column temperature were maintained at 1.0 ml/min and 25° C., respectively. […] The amount of drug release was determined using respective standard calibration curves.
Excised human cornea was washed with PBS and mounted between donor and receptor compartments with epithelial side facing donor chamber. Receptor medium contained PBS maintained at 37±1° C. temperature using heated water circulator unit. The donor compartment was charged with 0.4% of drug containing polymeric hydrogel, standard drug solution or marketed formulation. Samples (300 μl) were withdrawn from the receptor chamber at predetermined time intervals including 0.5, 1, 2, 4, 6, 12 and 24 h. Samples were analyzed by HPLC method described above. […] Corneal permeation parameters were calculated from cumulative amount of drug permeated vs. time profile. Flux (J) was calculated from the slope of the linear portion of cumulative amount of permeated vs. time profile. Lag time (ttag) was calculated by extrapolating the linear portion of the curve to time axis. Permeability coefficient (Kp) was calculated using Equation 1.

[2] = test system: Staphylococcus aureus (ATCC 25923) infected human cornea; experiment: Antibacterial activity in ex vivo corneal infection model; assay type: cell-based; settings: infected cornea incubated 30 min with 0.4% formulation, then 24 h; 10^−7 dilution; n=3
Experimental: Human corneas were incubated in antibiotic free DMEM media overnight at 37° C. […] After 24 h incubation at 37° C., the infected corneas were washed again with PBS and used for further studies. The infection-free corneas were used as controls (Pinnock, et. al, 2017). Infected cornea was washed, and a metal ring was placed on the corneoscleral button, creating a watertight seal. Drug formulations (0.4%) were added to the center of the ring and incubated for 0.5 and 1.5 h at 37° C. Later, the corneas were washed thoroughly with PBS to remove the excess formulation and incubated for 24 h at 37° C. The cornea was then homogenized, and the resulting suspension was serially diluted. A 10 μl sample was spotted on agar plates at 10^−5, 10^−6, 10^−7, 10^−8 dilutions for colony enumeration. The colonies were counted visually and expressed in colony forming units (CFU) using Equation 2. The antibacterial activity of drugs loaded in hydrogel formulations was evaluated against Staphylococcus aureus (ATCC 25923) infected human cornea (n=3).

| Structure (SMILES) | Time to 100% release / complete diffusion across the membrane [1] [h] | Permeability coefficient (excised human cornea) | Diffusion coefficient (excised human cornea; human, 0.4 %) | Flux (excised human cornea; human, 0.4 %) [μg/cm^2/h] | Lag time (excised human cornea; human, 0.4 %) [h] | Corneal tissue concentration (excised human cornea; human, 0.5 h, 0.4 %) | Cumulative amount permeated (excised human cornea; human, 24 h, 0.4 %) [μg/cm^2] | Cumulative amount permeated across cornea (excised human cornea; human, 24 h, 0.4 %) [µg] | CFU/ml [2] |
| --- | --- | --- | --- | --- | --- | --- | --- | --- | --- |
| N[C@@H]1CCCCN(c2c(F)cc3c(=O)c(C(=O)O)cn(C4CC4)c3c2Cl)C1 [Besifloxacin Std., besifloxacin] | ≤ 10 | 15.57 ×10^−3, cm^2/h | 21.34 ×10^−3 | 36.80 ± 13.99 | 1.22 ± 0.39 | 398±50 μg/gram of tissue | 1267.42 ± 37.56 | 1267 ± 38 | 2.5 ± 0.82 CFU/ml (×10^9) |
| C[C@H]1COc2c(N3CCN(C)CC3)c(F)cc3c(=O)c(C(=O)O)cn1c23 [Levofloxacin Std., levofloxacin] |  |  |  |  |  |  |  |  | 8.3 ± 5.10 CFU/ml (×10^9) |
